Test results as given in ChEMBL document CHEMBL2434948, “Discovery, synthesis, and characterization of an orally bioavailable, brain penetrant inhibitor of mixed lineage kinase 3” (J Med Chem, 2013).

Tests used:
Aurora kinase C = Aurora kinase C (Homo sapiens, UniProt Q9UQB9)
Description: Inhibition of wild type human Aurora kinase C kinase by high throughput ATP-[33P] radiolabeled assay

[1] = target: Leucine-rich repeat serine/threonine-protein kinase 2 (Homo sapiens, UniProt Q5S007)
Description: Inhibition of human wild type LRRK2 by qPCR analysis

[2] = target: Inhibitor of nuclear factor kappa-B kinase subunit alpha (Homo sapiens) (UniProt O15111); experiment: Inhibition of human wild type IKKalpha at 1 uM by qPCR analysis relative to control
Sequence of Inhibitor of nuclear factor kappa-B kinase subunit alpha (Homo sapiens) (O15111 whole entry): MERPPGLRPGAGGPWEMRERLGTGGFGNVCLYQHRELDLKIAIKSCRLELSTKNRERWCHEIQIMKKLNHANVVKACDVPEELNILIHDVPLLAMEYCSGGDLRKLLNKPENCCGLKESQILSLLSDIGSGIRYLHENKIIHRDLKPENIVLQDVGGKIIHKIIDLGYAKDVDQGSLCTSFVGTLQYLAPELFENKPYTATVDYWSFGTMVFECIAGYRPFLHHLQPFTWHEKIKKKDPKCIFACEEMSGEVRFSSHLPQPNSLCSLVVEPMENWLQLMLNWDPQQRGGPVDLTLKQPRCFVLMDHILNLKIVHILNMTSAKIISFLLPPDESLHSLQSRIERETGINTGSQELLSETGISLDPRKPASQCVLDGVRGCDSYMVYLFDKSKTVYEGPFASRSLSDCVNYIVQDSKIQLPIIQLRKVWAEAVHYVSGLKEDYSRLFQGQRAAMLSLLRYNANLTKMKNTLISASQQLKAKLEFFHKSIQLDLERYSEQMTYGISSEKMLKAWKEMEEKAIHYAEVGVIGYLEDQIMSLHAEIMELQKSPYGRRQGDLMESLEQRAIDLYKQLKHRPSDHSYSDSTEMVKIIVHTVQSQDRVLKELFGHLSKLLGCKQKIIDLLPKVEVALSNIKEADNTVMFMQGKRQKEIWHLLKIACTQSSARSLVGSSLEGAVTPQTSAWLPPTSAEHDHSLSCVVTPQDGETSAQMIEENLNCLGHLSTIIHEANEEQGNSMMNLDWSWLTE

[3] = target: Mitogen-activated protein kinase kinase kinase 11 (Homo sapiens, UniProt Q16584)
Sequence of Mitogen-activated protein kinase kinase kinase 11 (Q16584 whole entry): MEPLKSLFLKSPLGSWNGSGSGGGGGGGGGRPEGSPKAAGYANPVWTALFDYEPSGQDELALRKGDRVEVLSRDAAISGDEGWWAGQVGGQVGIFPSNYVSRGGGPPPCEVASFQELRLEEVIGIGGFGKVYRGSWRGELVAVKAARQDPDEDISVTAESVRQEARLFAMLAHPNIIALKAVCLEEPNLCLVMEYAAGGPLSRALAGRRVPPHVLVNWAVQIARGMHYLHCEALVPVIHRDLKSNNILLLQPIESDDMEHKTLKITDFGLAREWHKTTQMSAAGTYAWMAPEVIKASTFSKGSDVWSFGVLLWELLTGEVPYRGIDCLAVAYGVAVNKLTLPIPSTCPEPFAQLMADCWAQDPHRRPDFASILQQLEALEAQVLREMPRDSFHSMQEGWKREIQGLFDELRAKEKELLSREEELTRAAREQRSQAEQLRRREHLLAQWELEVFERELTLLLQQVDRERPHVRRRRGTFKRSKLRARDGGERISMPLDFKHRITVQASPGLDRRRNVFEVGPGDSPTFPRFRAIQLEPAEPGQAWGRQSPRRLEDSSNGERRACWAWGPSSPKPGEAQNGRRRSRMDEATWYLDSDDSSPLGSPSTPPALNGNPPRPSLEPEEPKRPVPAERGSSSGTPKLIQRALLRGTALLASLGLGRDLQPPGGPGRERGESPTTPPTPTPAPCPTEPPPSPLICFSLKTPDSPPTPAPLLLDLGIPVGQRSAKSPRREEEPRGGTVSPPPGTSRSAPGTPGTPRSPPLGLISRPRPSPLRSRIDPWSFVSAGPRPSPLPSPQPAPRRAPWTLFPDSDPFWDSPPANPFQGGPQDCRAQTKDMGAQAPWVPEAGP
Description: Inhibition of MLK3 (unknown origin) after 20 mins by scintillation counting analysis in presence of [33P]-ATP

Aurora kinase A = Aurora kinase A (Homo sapiens, UniProt O14965)
Sequence of Aurora kinase A (O14965 whole entry): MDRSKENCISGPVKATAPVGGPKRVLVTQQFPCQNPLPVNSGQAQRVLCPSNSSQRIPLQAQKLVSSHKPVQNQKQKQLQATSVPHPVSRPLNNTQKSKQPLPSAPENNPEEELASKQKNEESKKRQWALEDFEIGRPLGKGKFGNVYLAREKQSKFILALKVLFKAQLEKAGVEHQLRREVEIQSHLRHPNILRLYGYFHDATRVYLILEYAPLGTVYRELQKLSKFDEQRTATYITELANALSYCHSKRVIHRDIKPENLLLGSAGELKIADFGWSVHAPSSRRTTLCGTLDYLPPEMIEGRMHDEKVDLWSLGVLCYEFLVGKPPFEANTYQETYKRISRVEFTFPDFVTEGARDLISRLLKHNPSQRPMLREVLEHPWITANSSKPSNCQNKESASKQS
Description: Inhibition of wild type human Aurora kinase A by high throughput ATP-[33P] radiolabeled assay

[4] = target: Cyclin-dependent kinase 11B (Homo sapiens) (UniProt P21127); experiment: Inhibition of human wild type CDK11 at 1 uM by qPCR analysis relative to control

Sequence of Leucine-rich repeat serine/threonine-protein kinase 2 (Q5S007 whole entry): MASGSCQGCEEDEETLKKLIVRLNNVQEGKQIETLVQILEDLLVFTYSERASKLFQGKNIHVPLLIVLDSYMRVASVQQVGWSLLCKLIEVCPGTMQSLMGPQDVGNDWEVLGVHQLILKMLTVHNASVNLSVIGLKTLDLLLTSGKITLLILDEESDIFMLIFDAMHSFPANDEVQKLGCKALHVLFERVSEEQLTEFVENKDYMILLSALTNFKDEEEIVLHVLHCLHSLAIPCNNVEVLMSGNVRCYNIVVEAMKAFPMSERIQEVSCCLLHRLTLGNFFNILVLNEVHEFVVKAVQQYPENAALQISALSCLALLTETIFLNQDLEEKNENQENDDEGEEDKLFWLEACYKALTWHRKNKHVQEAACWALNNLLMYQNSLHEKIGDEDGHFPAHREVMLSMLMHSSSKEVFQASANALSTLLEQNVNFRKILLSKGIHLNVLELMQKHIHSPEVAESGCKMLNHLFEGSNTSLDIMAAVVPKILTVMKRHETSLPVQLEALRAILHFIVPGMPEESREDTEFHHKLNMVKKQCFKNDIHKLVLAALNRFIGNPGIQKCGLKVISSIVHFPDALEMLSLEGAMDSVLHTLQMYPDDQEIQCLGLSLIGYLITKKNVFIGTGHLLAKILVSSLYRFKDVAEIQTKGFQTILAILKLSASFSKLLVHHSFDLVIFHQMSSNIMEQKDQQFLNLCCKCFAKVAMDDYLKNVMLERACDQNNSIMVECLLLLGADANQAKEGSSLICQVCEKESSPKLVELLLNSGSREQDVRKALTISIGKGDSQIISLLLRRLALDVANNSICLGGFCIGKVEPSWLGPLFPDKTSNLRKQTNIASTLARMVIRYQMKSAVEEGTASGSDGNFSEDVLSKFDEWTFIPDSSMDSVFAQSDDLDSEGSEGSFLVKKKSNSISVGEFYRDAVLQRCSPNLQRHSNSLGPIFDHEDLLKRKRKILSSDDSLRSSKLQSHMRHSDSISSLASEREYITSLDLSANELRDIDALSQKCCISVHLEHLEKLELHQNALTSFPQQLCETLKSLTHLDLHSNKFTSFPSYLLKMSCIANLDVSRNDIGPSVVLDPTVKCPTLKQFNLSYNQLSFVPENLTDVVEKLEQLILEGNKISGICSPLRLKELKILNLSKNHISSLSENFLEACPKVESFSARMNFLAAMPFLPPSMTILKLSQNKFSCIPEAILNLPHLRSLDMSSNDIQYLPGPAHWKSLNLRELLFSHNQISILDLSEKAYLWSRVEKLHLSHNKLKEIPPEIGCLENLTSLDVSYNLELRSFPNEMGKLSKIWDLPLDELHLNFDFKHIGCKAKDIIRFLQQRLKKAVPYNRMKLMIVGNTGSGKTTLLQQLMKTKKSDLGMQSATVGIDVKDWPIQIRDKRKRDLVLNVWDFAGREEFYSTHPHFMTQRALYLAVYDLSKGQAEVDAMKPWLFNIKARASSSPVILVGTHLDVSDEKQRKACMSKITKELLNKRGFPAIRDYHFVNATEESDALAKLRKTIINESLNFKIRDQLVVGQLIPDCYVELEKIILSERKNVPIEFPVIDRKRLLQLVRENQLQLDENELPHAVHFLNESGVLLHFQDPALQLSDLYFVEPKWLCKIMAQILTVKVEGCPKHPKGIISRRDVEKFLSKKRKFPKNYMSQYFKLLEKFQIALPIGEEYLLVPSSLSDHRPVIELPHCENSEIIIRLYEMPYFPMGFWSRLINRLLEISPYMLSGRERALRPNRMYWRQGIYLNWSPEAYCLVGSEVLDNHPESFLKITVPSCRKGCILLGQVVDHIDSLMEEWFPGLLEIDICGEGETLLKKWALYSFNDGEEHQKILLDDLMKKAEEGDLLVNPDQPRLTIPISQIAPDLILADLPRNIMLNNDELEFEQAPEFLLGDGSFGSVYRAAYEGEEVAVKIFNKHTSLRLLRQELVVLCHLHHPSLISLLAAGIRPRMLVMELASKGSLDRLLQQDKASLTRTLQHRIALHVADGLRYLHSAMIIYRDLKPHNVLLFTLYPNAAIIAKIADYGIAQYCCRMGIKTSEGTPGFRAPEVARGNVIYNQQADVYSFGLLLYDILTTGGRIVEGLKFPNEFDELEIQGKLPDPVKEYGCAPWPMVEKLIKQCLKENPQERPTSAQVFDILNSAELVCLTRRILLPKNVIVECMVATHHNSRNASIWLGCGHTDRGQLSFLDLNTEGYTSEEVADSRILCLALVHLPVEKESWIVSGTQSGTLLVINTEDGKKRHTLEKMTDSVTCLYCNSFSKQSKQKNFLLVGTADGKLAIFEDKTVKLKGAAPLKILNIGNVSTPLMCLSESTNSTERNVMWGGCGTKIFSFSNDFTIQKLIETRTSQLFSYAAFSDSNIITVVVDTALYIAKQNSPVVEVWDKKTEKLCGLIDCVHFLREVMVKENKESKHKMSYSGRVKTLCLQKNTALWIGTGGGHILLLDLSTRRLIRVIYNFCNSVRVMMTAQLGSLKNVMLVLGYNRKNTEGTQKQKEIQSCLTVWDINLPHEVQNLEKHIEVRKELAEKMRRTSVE
Sequence of Aurora kinase C (Q9UQB9 whole entry): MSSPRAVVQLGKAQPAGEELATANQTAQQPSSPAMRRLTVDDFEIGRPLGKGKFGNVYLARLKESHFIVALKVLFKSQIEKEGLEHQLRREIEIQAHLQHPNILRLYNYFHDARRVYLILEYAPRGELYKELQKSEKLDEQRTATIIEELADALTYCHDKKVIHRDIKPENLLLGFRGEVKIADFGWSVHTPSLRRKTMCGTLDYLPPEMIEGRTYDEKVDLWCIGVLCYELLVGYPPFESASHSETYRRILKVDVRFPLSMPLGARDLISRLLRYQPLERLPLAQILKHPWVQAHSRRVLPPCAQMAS

For CN1CCN(Cc2ccc(-c3cnc4[nH]cc(-c5ccc6[nH]ccc6c5)c4c3)cc2)CC1, the IC50 (Aurora kinase C) was 290 nM, the IC50 [1] was 11 nM and the inhibition [2] was over 90%. It also gave an IC50 [3] of 14 nM, an IC50 (Aurora kinase A) of 108 nM and an inhibition [4] of over 90%.
